Assays:
[1] = test system: community-dwelling subjects with mild or moderate dementia; settings: cited from earlier work
[2] = test system: subjects with early-stage dementia; settings: 44 subjects with early-stage dementia; cited from earlier work
spleen T-cells = assay: Proliferation assay ([3H]thymidine incorporation) of spleen cells after feeding or nasal treatment and immunization; format: in vivo, SWISSXBDF1 mice; settings: fed (75 µg/feeding x 5) or nasally treated (25 µg x 3); immunized two days after last treatment with 100 µg peptide in 50 µg CFA; Figure 1A
Experimental: (§1) Female BALB/C (6-8 weeks of age); DBA/2; C3H/eb; C47b1/6; SWISSXBDF1 or SHL/J mice were used. The animals were maintained in a temperature- and light-controlled environment with free access to feed and water. Each experimental group contained no fewer than 5 mice.
(§2) Mice were immunized with 100 µg of [1-40]β-amyloid peptide ([1-40]Aβ) emulsified in 50 µg CFA (Difco Laboratories, Inc.). On day 10, popliteal lymph nodes and spleens were removed and for T-cell proliferation and cytokine production.

[3] = test system: popliteal lymph node T-cells; assay: Proliferation assay ([3H]thymidine incorporation) of popliteal lymph node cells after feeding or nasal treatment and immunization; format: in vivo, SWISSXBDF1 mice; settings: fed or nasally treated; ten days after foot pad immunization with 100 µg peptide in 50 µg CFA; Figure 1B
Experimental: as §1, §2

[4] = test system: popliteal lymph node T-cells and spleen cells; assay: Proliferation assay in mouse strains immunized but not fed the peptide; format: in vivo, SJL/J, DBA/1, C57BL/6, BALB/C and C3H/EB mice; settings: one in vitro stimulation, Figures 2A, 2B
Experimental: as §2
Figure 2A compares proliferation of popliteal lymph node T-cells from SJL/J, DBA/I, C57BL/6, BALB/C and C3H/EB mice immunized with [1-40]β-amyloid peptide. Figure 2B compares proliferation in spleen cells from SJL/J, DBA/1, C57BL/6, BALB/C and C3H/EB mice immunized with [1-40]β-amyloid peptide. […] It should be noted that T-cells for the experiment shown in this Example are stimulated with antigen only once in vitro prior to the proliferation assay. Additional stimulations would enlist response from the apparent non-responder strain C57BL/6 and (DBA/1). This experiment provides information about the responding ability of cells from various strains and was useful in designing the subsequent experiments described below. It is believed to be advantageous to select "good responders" (such as C3H/EB) but not "too high responders" (SJL/J was thus not chosen).

PDAPP mice [5] = assay: β-amyloid plaque load in brain sections (visual and computer assisted image analysis); format: in vivo
From the text: Transgenic PDAPP mice were acquired from Athena Neurosciences, Inc. (South San Francisco, CA). These mice express a human gene encoding a mutant form of β-amyloid precursor protein and progressively develop β-amyloid deposits in the hippocampus and cerebral cortex in a manner similar to that seen in Alzheimer's disease. The β-amyloid deposits in the transgenic mice become associated with activated microglial cells, reactive astrocytes and other features of the periplaque inflammatory response seen in Alzheimer's disease brains.
4 to 5 month old PDAPP mice were fed or nasally administered either [1-40]β-amyloid peptide or a control protein (myelin basic protein or ovalbumin in amounts of 50 or 500 µg per feeding). Administration was carried out three (nasal) or five times consecutively (oral) during an initial one week period, and then on a weekly basis until the animals were between 11 and 12 months old. The orally administered β-amyloid peptide was in a dosage of 10 or 100 µg, and the nasally administered β-amyloid was in a dosage of 5 or 25 µg. […]
Specificially, results are shown for both visual and computer assisted image analysis of β-amyloid plaque load for the 8 experimental groups of mice that were tested; values are shown for each mouse in the relevant group. […] The visual assessment of plaque load was scored according to the table shown at the bottom of Figure 9A.

PLN [6] = settings: mice of certain strains (e.g., C3H/EB and DBA/1) mucosally tolerized
[7] = test system: popliteal lymph node and spleen T-cells; assay: Cytokine profiles (capture ELISA) after feeding or nasal administration and immunization of non-transgenic littermates; format: in vivo, SWISSXXB6D2F1 mice; settings: then immunized, ten days later
Experimental: Levels of IL-4, IL-2, IL-10, TGF-β and IFNγ in supernatants were determined by capture ELISA as described. […] Briefly, supernatants were added to microtiter (Maxisorp) plates, previously coated with rat anti-mouse IL-4, IL-2, IL-10, TGF-β or IFN-γ monoclonal antibodies (capture antibodies, Pharmingen; 1 µg/ml at 4°C over night) and blocked with BSA-diluent/blocking solution (KPL). Plates were washed, and standards and samples were added for another overnight incubation at 4°C. Bound cytokine was detected by the addition of ABTS (Kirkegaard & Perry). Wells were washed, and cytokine levels determined using biotinylated rat anti-mouse IL-4, IL-2, IL-10, TGF-β or IFN-γ monoclonal antibodies (detecting antibodies, Pharmingen) and a peroxide visualization system (peroxidase-labeled streptavidin). IL-2 and IL-4 were analyzed after 24 hours of cell incubation with antigen, IL-10 and IFN-γ after 40 hours and TGF-β after 72 hours. Cytokine levels were calculated from a log-log plot of absorbance vs. concentration of recombinant cytokines (Pharmingen), and results are expressed in pg/mL (for IL-4, IL-2, IL-10, TGF-β and IFN-γ). Threshold sensitivities of ELISA assays were 5 pg/mL, 10 pg/mL and 2.5 ng/mL for IL-4, IL-2 and IFN-γ, respectively.
Feeding and Immunization: SWISSXXB6D2F1 mice were fed with [1-40]Aβ 75 µg/feeding x 5 or nasally administered with 25 µg/application x 3, and 2 days after the last treatment, were immunized with 100 µg [1-40]Aβ in 50 µg CFA. Ten days later, the popliteal lymph node and spleen T-cells were checked for cytokine production as described above.

PDAPP mice [8] = assay: Immunoreactivity tests on brain sections (immunological markers and cytokines); format: in vivo; settings: mice treated mucosally; Figures 9A, 9B
Experimental: 4 to 5 month old PDAPP mice were fed or nasally administered either [1-40]β-amyloid peptide or a control protein (myelin basic protein or ovalbumin in amounts of 50 or 500 µg per feeding). Administration was carried out three (nasal) or five times consecutively (oral) during an initial one week period, and then on a weekly basis until the animals were between 11 and 12 months old. The orally administered β-amyloid peptide was in a dosage of 10 or 100 µg, and the nasally administered β-amyloid was in a dosage of 5 or 25 µg.
The feeding and nasal administration of β-amyloid peptide, or ovalbumin to PDAPP mice was conducted among the following mice groups: Group 0: Non treated; mice nos. 0.1-0.7 Group 1: fed [1-40]β-amyloid peptide 100µg/feeding; mice nos. 1.1-1.9 Group 2: fed [1-40]β-amyloid peptide 10µg/feeding; mice nos. 2.1-2.9 Group 3: nasal [1-40]β-amyloid peptide 25µg/treatment; mice nos. 3.1-3.9 Group 4: nasal [1-40]β-amyloid peptide 5µg/treatment; mice nos. 4.1-4.7 Group 5: fed ovalbumin 500µg/feeding; mice nos. 5.1-5.6 Group 6: nasal ovalbumin 50µg/treatment; mice nos. 6.1-6.6 Group 7: fed MBP 500µg/feeding; mice nos. 7.1-7.5 Group 8: nasal MBP 50µg/treatment; mice nos. 8.1-8.6
At the end of the treatment period, the mice were sacrificed and brains, popliteal lymph nodes and spleens removed. […]

β-amyloid = assay: Immunoassay of mouse antisera for IgG subtypes against β-amyloid (Down syndrome brain sections as capture antigen); format: in vivo, PDAPP mice; settings: nasally treated with 25 µg; over controls; Figure 11
Experimental: In these experiments, the antisera were tested in an immunoassay for the presence of IgG subtypes against β-amyloid. In the immunoassay, Down syndrome brain sections, which contain large amounts of β-amyloid, were employed as "capture" antigen. IgG in the mice antisera were bound to the sections, and the presence of IgG subtypes in the bound antibodies distinguished by secondary (2°) antibodies specific for each subtype. […] These antibodies are associated with Th2 type cellular immune responses.

[9] = test system: popliteal lymph node and spleen T-cells; assay: Cytokine production assay (capture ELISA) after feeding or nasal administration and immunization; format: in vivo, C3H/EB mice; settings: then immunized
Experimental: C3H/eb mice were fed [1-40]Aβ 500 µg/feeding, 50 µg/feeding, or 5 µg/feeding every day for 5 days (200 µl/feeding). Nasal administration was given at 50 µg/application or 5 µg/application every day for 3 days (10 µl/application).
This experiment also served as a preliminary dose response experiment for this mouse strain.
Figure 5A illustrates the result in secretion of the Th1 immunostimulatory (proinflammatory) cytokine IL-2 in popliteal lymph nodes from C3H/EB mice at various feeding levels (5, 50 and 500 µg/feeding for 5 days) and when nasally administered (5 or 50 µg/application for 3 days) [1-40]β-amyloid peptide prior to immunization (2 days after the last feeding or nasal application) with 100 µg [1-40]β-amyloid peptide in 50 µg CFA. […] Based on the results for Fig. 5A, and Figs. 5B, 6A, 6B, and 7A, 7B, it was decided to use 25 µg nasally and 75 µg orally in subsequent experiments.

PLN [10] = settings: mucosally administered, immunized 10 days prior to sacrifice
Experimental: Levels of IL-4, IL-2, IL-10, TGF-β and IFNγ in supernatants were determined by capture ELISA as described. Friedman, A., et al., Proc. Nat'l Acad. Sci. U.S.A., 91, 6688 (1994); Yang, X., et al., J. Immunol., 150, 4354 (1993). Briefly, supernatants were added to microtiter (Maxisorp) plates, previously coated with rat anti-mouse IL-4, IL-2, IL-10, TGF-β or IFN-γ monoclonal antibodies (capture antibodies, Pharmingen; 1 µg/ml at 4°C over night) and blocked with BSA-diluent/blocking solution (KPL). Plates were washed, and standards and samples were added for another overnight incubation at 4°C. Bound cytokine was detected by the addition of ABTS (Kirkegaard & Perry). Wells were washed, and cytokine levels determined using biotinylated rat anti-mouse IL-4, IL-2, IL-10, TGF-β or IFN-γ monoclonal antibodies (detecting antibodies, Pharmingen) and a peroxide visualization system (peroxidase-labeled streptavidin). IL-2 and IL-4 were analyzed after 24 hours of cell incubation with antigen, IL-10 and IFN-γ after 40 hours and TGF-β after 72 hours. Cytokine levels were calculated from a log-log plot of absorbance vs. concentration of recombinant cytokines (Pharmingen), and results are expressed in pg/mL (for IL-4, IL-2, IL-10, TGF-β and IFN-γ). Threshold sensitivities of ELISA assays were 5 pg/mL, 10 pg/mL and 2.5 ng/mL for IL-4, IL-2 and IFN-γ, respectively.
Two mice from each of groups 1, 5, and 8 were immunized with β-amyloid peptide 10 days prior to sacrifice.

[11] = at least pursuant to nasal administration of 25 µg
[12] = fed 75 µg/feeding x 5 or nasal 25 µg/application x 3

Q: Which results are given for `Cl.Nc1c2c(nc3ccccc13)CCCC2.O` [TACRINE, 1,2,3,4-tetrahydro-9-acridinamine monohydrochloride monohydrate]?
A: efficacy for treating Alzheimer's disease ([1]; community-dwelling subjects with mild or moderate dementia): only partially effective; serum aminotransferase levels ([1]; safety concern, may indicate hepatocellular injury): elevation

Q: Which “mental function during the study” value [2] does the source give for `COc1ccc2c(c1)c(CC(=O)O)c(C)n2C(=O)c1ccc(Cl)cc1` [indomethacin] here?
A: Its value is “did not deteriorate”.

Q: For “[1-40]β-amyloid peptide: β-amyloid peptide fragment [1-40], sequence derived from β-amyloid precursor protein; antigen given orally or nasally”, which “proliferation of spleen cells” value (spleen T-cells) is on record?
A: The value was “significant suppression of proliferation”.

Q: And the “proliferation in popliteal lymph nodes” value [3]?
A: Its value is “suppression of proliferation”.

Q: What about the “proliferative response to the peptide after immunization” value [4] of the same compound?
A: Its value is “many strains of normal mice (not transgenic mice, not Alzheimer's model) respond”.

Q: And the “difference in β-amyloid deposits versus controls (1-tailed Mann-Whitney U-test)” value (PDAPP mice [5]; nasally administered 25 µg)?
A: The value was “statistically significant”.

Q: And the “development of β-amyloid deposits” value (PDAPP mice [5]; oral 10 or 100 µg or nasal 5 or 25 µg, weekly from 4-5 to 11-12 months of age, versus control groups)?
A: Its value is “fewer β-amyloid deposits”.

Q: What about the PLN proliferation (PLN [6]) of the same compound?
A: The PLN proliferation was “decreased PLN proliferation”.

Q: And the “in vitro IFN-γ response to Aβ stimulation” value [7, 11]?
A: Its value is “reduced in vitro response”.

Q: What about the “in vitro IL-2 response to Aβ stimulation” value [7, 11] of the same compound?
A: The value was “reduced in vitro response”.

Q: What about the “in vitro IL-10 response to Aβ stimulation” value [7, 12] of the same compound?
A: The value was “increased response”.

Q: And the “in vitro TGF-β response to Aβ stimulation” value [7, 12]?
A: Its value is “increased response”.

Q: What about the “microglial activation in the brain” value (PDAPP mice [8]) of the same compound?
A: The value was “decreased microglial activation”.

Q: And the “production of inflammatory cytokines in the brain” value (PDAPP mice [8])?
A: Its value is “decreased production”.

Q: And the “IgG1 class antibodies against β-amyloid in antisera” value (β-amyloid)?
A: Its value is “increase”.

Q: What about the “secretion of IL-2 in spleen cells” value ([9]; at 5 µg fed and 50 µg nasal, Fig. 5B) of the same compound?
A: The value was “Suppression of IL-2 secretion was clear”.

Q: What about the “secretion of IL-10” value ([9]; fed 5, 50 or 500 µg/feeding for 5 days or nasal 5 or 50 µg/application for 3 days, Figures 4A, 4B) of the same compound?
A: The value was “significant enhancement of IL-10 in at least one of spleen and PLN cells treated with at least one dose”.

Q: What about the “secretion of TGF-β in spleen cells” value ([9]; fed 5 and 50 µg/feeding for 5 days or nasal 50 µg/application for 3 days, Figure 6B) of the same compound?
A: Its value is “enhanced secretion”.

Q: What about the “secretion of IL-2 in popliteal lymph nodes” value ([9]; nasal administration (5 or 50 µg/application for 3 days), Fig. 5A) of the same compound?
A: Its value is “Suppression of IL-2 secretion was clear”.

Q: And the “production of IL-2” value (PLN [10]; Figure 12)?
A: The value was “decreased production”.

Q: And the “production of IFN-γ” value (PLN [10]; Figure 14)?
A: Its value is “decreased production”.

Q: What about the “production of IL-6” value (PLN [10]; Figure 15) of the same compound?
A: The value was “decreased production”.

Q: And the “production of IL-10” value (PLN [10]; Figure 16)?
A: The value was “increased production”.

Q: And the “production of TGF-β” value (PLN [10]; Figure 17)?
A: The value was “increased production”.

— patent EP1033998B1, “SUPPRESSING BETA-AMYLOID-RELATED CHANGES IN ALZHEIMER'S DISEASE” (Neuralab, Ltd., priority 1997, dated 2005)
